Laboratory results published in patent publication US6034062A, “Bone morphogenetic protein (BMP)-9 compositions and their uses” (Genetics Institute, Inc., priority 1997, dated 2000).

Legend:
primary rat hepatocytes = experiment: Primary rat hepatocyte 3H-thymidine incorporation; format: cell-based; conditions: subconfluent primary rat hepatocytes, 36 hours, serum-free
Description: As a first indication of BMP-9 effects on confluent, serum starved HepG2 cells, cell proliferation is examined as determined by ^3 H-thymidine incorporation and cell counting. HepG2 cells are plated at […] in 96 well plates and cultured for 48 hours in DME/0.1% FCS to synchronize the cell cycle are treated for 24 hours with or without BMP-9 in the presence of 0.1% FCS. In ^3 H-thymidine incorporation assays, ^3 H-thymidine was included during the last 4 hours of treatment and cellular DNA was collected with a 96 well plate cell harvester. Proliferation was assayed by quantifying ethanol-precipitable ^3 H-thymidine incorporation by liquid scintillation counting. For cell counting assays, cells were trypsinized and counted with a hemacytometer. […] BMP-9 stimulates ^3 H-thymidine incorporation in HepG2 cells approximately five fold.
To determine if this proliferative effect of BMP-9 was unique to the HepG2 liver tumor cell line, primary rat hepatocytes were tested for effects of BMP-9 on ^3 H-thymidine incorporated as shown in FIG. 4.

[1] = system: BMP-9 receptors expressed on HepG2 cells; experiment: 125I-BMP-9 binding to HepG2 cells; conditions: HepG2 cells, 125I-BMP-9 and 250-fold excess of unlabeled ligand
Description: BMP-9 responsiveness in parenchymal liver cells is tested by screening four liver cell lines for their ability to bind iodinated, CHO-derived BMP-9. […] Specific binding of BMP-9 to HepG2 cells is carried out by incubating HepG2 cells grown to confluence in Dulbecco's Modified Eagle's Medium (DME) containing 10% heat-inactivated fetal calf serum (FCS) on gelatinized 6 well plates with 2 ng/ml ^125 I-BMP-9 and increasing concentrations of unlabelled BMP-9 in binding buffer (136.9 mM NaCl, 5.37 mM KCl, 1.26 mM CaCl2, 0.64 mM MgSO4, 0.34 mM Na2 HPO4, 0.44 mM KH2 PO4, 0.49 mM MgCl2, 25 mM HEPES and 0.5% BSA, pH 7.4) for 20 hours at 4° C. to achieve binding equilibrium. This incubation follows a one hour preincubation at 37° C. in binding buffer alone. For crosslinking experiments, the cells were incubated with 500 μM disuccinimidyl suberate for 20 minutes at […] following binding. Cell extracts were analyzed on SDS-PAGE. […] To test the binding specificity of the receptors for BMP-9, HepG2 cells were incubated with ^125 I-BMP-9 and a 250-fold excess of different unlabeled ligands.

[2] = system: Articular cartilage explants from calf carpal joints; experiment: Articular cartilage assay (proteoglycan synthesis, sulfate incorporation); format: cell-based; conditions: 100 ng/ml, calf articular cartilage explants
Description: The effect of BMP-9 on articular cartilage proteoglycan and DNA synthesis is assayed to determine if BMP-9 is involved in the regulation of metabolism of differentiated articular cartilage.
Articular cartilage explants from calf carpal joints are maintained in DMEM with 50 μg/ml ascorbate, 4 mM glutamine and antibiotics for 3 days. Cytokines (rhBMP-2, rhBMP-4, rhBMP-6 and rhBMP-9, IGF-1, bFGF (1-1000 ng/ml), and TGFβ (1-100 ng/ml)) are added to the medium and culture is continued for 3 more days. Medium is changed daily. Twenty-four hours prior to harvest, explants are pulsed with 50 μCi/ml ^35 SO4 or 25 μCi/ml ^3 H-thymidine. Explants are solubilized and separation of free isotope is performed by gel chromatography. Total DNA of each explant is measured by a spectrophotometric assay.

IMCD-3 cells = experiment: IMCD-3 cell condensation and tubulogenesis in collagen matrix; format: cell-based; conditions: IMCD-3 cells in 3-dimensional collagen gel, 100 ng/ml, 6 days, serum-free
Description: Several cell lines are tested for BMP-9 responsiveness in vitro. Cell proliferation, as indicated by [^3 H]thymidine incorporation, is determined in cell lines derived from kidney and lung. Cell proliferation is determined by measuring [^3 H]thymidine incorporation in subconfluent cells treated for 24 h with or without growth factors. NRK-52E (ATCC CRL 1571), WI-38 (ATCC CCL-75), CCD-11Lu (ATCC CCL-202), CCD-16Lu (ATCC CCL-204), and A-549 (ATCC CCL-185) cell lines are placed at 10^4 cells/well in 96 well plates and assayed for [^3 H]thymidine incorporation as described above. IMCD-3 cells (ATCC #CRL-2123) are cultured in a collagen matrix as described by Barros et al., PNAS USA 92:4412-4416 (1995), and treated with growth factors for 6 days to allow tubule formation.
In contrast, BMP-9 appeared to stimulate proliferation in several fibroblast cell lines derived from lung. […] The effect of rhBMP-9 on tubulogenesis was examined in IMCD-3 cells, another epithelial kidney cell line. […] It is therefore contemplated that both lung and kidney cells are physiological targets for BMP-9.

Substance: EGF: epidermal growth factor (NSDSECPLSHDGYCLHDGVCMYIEALDKYACNCVVGYIGERCQYRDLKWWELR; UniProt P01133 971-1023, looked up)
- 3H-thymidine incorporation (primary rat hepatocytes): markedly

Substance: TGF-β1: transforming growth factor β1
- crossreactivity of BMP-9 receptors with unlabeled ligand [1]: no crossreactivity
- 3H-thymidine incorporation (primary rat hepatocytes): inhibitory, not stimulatory

Substance: TGFβ
- proteoglycan synthesis [2]: significantly more active in stimulating proteoglycan synthesis

Substance: rhHGF: recombinant human HGF, inducer of tubulogenesis in IMCD-3 cells
- cell condensation and tubulogenesis (IMCD-3 cells): induced a marked branching tubulogenesis
